Our source for the inhibition values is patent US8558028B2, “Compound capable of inhibiting 17-beta hydroxysteriod dehydrogenase” (University of Bath of Claverton Down, priority 2007, dated 2013).

This experiment concerns the target T1, human 17β-HSD3 (Homo sapiens, UniProt P37058).
T1 construct: 293-EBNA cells stably transfected with 17β-HSD Type 3; expressed in transfected cells; host or cells: human 293-EBNA cells, stably transfected
T1 sequence (P37058 1-310): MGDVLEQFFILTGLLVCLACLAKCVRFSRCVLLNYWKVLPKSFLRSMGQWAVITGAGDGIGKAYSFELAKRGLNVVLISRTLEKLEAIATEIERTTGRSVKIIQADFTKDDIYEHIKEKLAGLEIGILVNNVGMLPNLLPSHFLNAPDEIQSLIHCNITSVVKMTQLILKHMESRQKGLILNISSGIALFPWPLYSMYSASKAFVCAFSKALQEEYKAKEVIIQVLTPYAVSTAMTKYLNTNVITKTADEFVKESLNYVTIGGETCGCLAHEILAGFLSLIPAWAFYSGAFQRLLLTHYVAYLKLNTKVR
In words: 17β-Hydroxysteroid dehydrogenase Type 3 activity in stably transfected 293-EBNA cells (TLC assay, 3H-androstenedione to testosterone). It counts as cell-based. The note with it: human 293-EBNA cells stably transfected with 17β-HSD Type 3, mean of at least 2 measurements, typically SD ±5%. As to the method: Assay Protocol-17β-Hydroxysteroid Dehydrogenase Type 3 Activity in the Presence of Regulatory Agents
293-EBNA cells stably transfected with 17β-HSD Type 3 were plated at 50,000 cells/well in 24 well plates in complete growth medium. After 48 hours 2-3 nM ^3H-Androstenedione in assay medium (500 ml DMEM medium with 5 ml 100×L-Glutamine, and 5 ml 7.5% sodium bicarbonate solution) was added with or without test compound at 1.5 ml/well (triplicate), and the cells incubated at 37° C.
Two hours later 1 ml medium was removed from each well and placed in a 125×16 mm glass test tube containing 25 μl of recovery solution (5000 dpm ^14C-Testosterone and 25 μg unlabelled
Testosterone). Ether (4 ml) was added and the tubes vortexed at high speed for 2×30 sec. After the samples had settled into two phases they were snap-frozen in a dry ice/methanol bath. The upper organic phase was decanted into 75×12 mm tubes and evaporated to dryness under an airstream using a sample concentrator (TECHNE) at 40° C. The samples were resuspended in ether (8 drops, then a further 3), spotted onto silica 60 F254 20 cm×20 cm TLC plates, and separated using a 4:1 v/v dichloromethane:ethyl acetate mobile phase.
After drying the plates, the major spots were marked under a UV lamp, cut out, and placed in individual scintillation vials containing 0.5 ml methanol. These were then shaken lightly and allowed to stand for 15 min before adding 10 ml of EcoScint A (scintillation fluid) to each tube along with 0.5 ml assay medium, and counted in a scintillation spectrometer (Beckman) using a program for dual [^3H/^14C] isotopes. The number of cells/well was then counted using a Coulter counter (Beckman).
The inhibitory activity of the test compounds is then assessed by calculating the amount of product formed correcting for crossover between isotope counts, recovery, dilution and non-enzymatic degradation (fmol/hr/million cells) with and without inhibitor, (% inhibition).
Compounds were tested at 10 μM for inhibition of human 17β-HSD3 with typically ˜200,000 to 300,000 human 293-EBNA cells/well.

Some results are limits rather than exact numbers.

Regarding `CC(=O)Nc1ccccc1C(=O)Nc1ccccc1Oc1ccc(Cl)cc1`, the inhibition at 10 µM is less than 20%.

Compound `CC(=O)Nc1cccc(CNc2ccccc2Oc2ccc(Cl)cc2)c1` gave an inhibition at 10 µM of 20 to 60%.

In turn, `COc1cc(CNc2ccccc2Oc2ccc(Cl)cc2Cl)c(NC(C)=O)cc1OC` came in with an inhibition at 10 µM of less than 20%.

The compound `CC(=O)Nc1ccc(C)cc1CNc1ccccc1Oc1ccc(Cl)cc1` gave an inhibition at 10 µM greater than 60%.

`O=C(Nc1ccccc1C(=O)Nc1ccccc1Oc1ccc(Cl)cc1)c1ccccc1` registered an inhibition at 10 µM of less than 20%.

The compound `CC(=O)Nc1c(CNc2ccccc2Oc2ccc(Cl)cc2)ccc2ccccc12` came in with an inhibition at 10 µM of less than 20%.

Consider `CC(=O)Nc1ccc(CNc2ccccc2Oc2ccc(Cl)cc2Cl)cc1`, for which the inhibition at 10 µM is less than 20%.

In turn, `CCNc1ccccc1C(C)Nc1ccccc1Oc1ccc(Cl)cc1` (centres unmarked) displayed an inhibition at 10 µM of 20 to 60%.

Regarding `CC(=O)N1CCC(Nc2ccccc2CN(C(C)=O)c2ccccc2Oc2ccc(Cl)cc2)CC1`, the inhibition at 10 µM fell in the range of 20 to 60%.

Regarding `CC(=O)Nc1ccccc1CNc1ccccc1Oc1ccc(OC(F)(F)F)cc1`, the inhibition at 10 µM was greater than 60%.

On to `COc1cc(CNc2ccccc2Oc2ccc(Cl)cc2)c(NC(C)=O)cc1OC`, for which the inhibition at 10 µM is less than 20%.

Turning to `CC(=O)N1CCC(Nc2ccccc2CNc2ccccc2Oc2ccc(Cl)cc2)CC1`, the inhibition at 10 µM lay within 20 to 60%.

Regarding `CC(=O)Nc1ccc(Cl)cc1CNc1ccccc1Oc1ccc(Cl)cc1Cl`, the inhibition at 10 µM was 20 to 60%.

With `CCCC(Nc1ccccc1Oc1ccc(Cl)cc1)c1ccccc1NC(C)=O` (centres unmarked), the inhibition at 10 µM was greater than 60%.

In the case of `CCN(C(C)=O)c1ccccc1C(C)Nc1ccccc1Oc1ccc(Cl)cc1` (centres unmarked), the inhibition at 10 µM is greater than 60%.

Take `CC(=O)Nc1ccccc1CNc1ccccc1Oc1ccc(Cl)cc1`: the inhibition at 10 µM is greater than 60%.

With `CC(=O)Nc1cc2c(cc1CNc1ccccc1Oc1ccc(Cl)cc1)OCO2`, the inhibition at 10 µM is greater than 60%.

In turn, `CC(=O)Nc1ccccc1C(Cc1ccccc1)Nc1ccccc1Oc1ccc(Cl)cc1` (centres unmarked) came in with an inhibition at 10 µM of less than 20%.

The compound `CC(=O)Nc1ccc(Cl)cc1CNc1ccccc1Oc1ccc(Cl)cc1` returned an inhibition at 10 µM greater than 60%.

In turn, `CC(=O)Nc1ccccc1CNc1cc(F)ccc1Oc1ccc(Cl)cc1` had an inhibition at 10 µM greater than 60%.

With `CC(=O)Nc1ccc(Cl)cc1CNc1ccccc1Oc1ccc(OC(F)(F)F)cc1`, the inhibition at 10 µM is greater than 60%.

With `C=CC[C@H](Nc1ccccc1Oc1ccc(Cl)cc1)c1ccccc1NC(C)=O`, the inhibition at 10 µM was greater than 60%.

Consider `CC(=O)Nc1ccccc1C(C)Nc1ccccc1Oc1ccc(Cl)cc1` (centres unmarked), for which the inhibition at 10 µM is greater than 60%.

The compound `C=CC[C@@H](Nc1ccccc1Oc1ccc(Cl)cc1)c1ccccc1NC(C)=O` had an inhibition at 10 µM of 20 to 60%.

Turning to `CC(=O)N(C)c1ccccc1CNc1ccccc1Oc1ccc(Cl)cc1`, the inhibition at 10 µM was greater than 60%.

`CC(=O)Nc1ccccc1CN(C(C)=O)c1ccccc1Oc1ccc(Cl)cc1` displayed an inhibition at 10 µM of less than 20%.

`CC(=O)Nc1ccc(CNc2ccccc2Oc2ccc(Cl)cc2)cc1`: the inhibition at 10 µM lay within 20 to 60%.

The compound `CC(=O)N1CCC(C(=O)Nc2ccccc2CNc2ccccc2Oc2ccc(Cl)cc2)CC1` showed an inhibition at 10 µM greater than 60%.

`CC(=O)Nc1ccccc1CN(C)c1ccccc1Oc1ccc(Cl)cc1` displayed an inhibition at 10 µM of less than 20%.

Regarding `CC(=O)N(C)c1ccccc1CN(C)c1ccccc1Oc1ccc(Cl)cc1`, the inhibition at 10 µM is 20 to 60%.

Turning to `C=CCC(Nc1ccccc1Oc1ccc(Cl)cc1)c1ccccc1NC(C)=O` (centres unmarked), the inhibition at 10 µM is greater than 60%.

With `CC(=O)N1CCC(C(=O)Nc2cccc(CNc3ccccc3Oc3ccc(Cl)cc3)c2)CC1`, the inhibition at 10 µM is greater than 60%.
